The values that follow are results of earlier work, collected in patent publication US20120232274A1, “PROCESS FOR PREPARATION OF CLOPIODOGREL BISULFATE FORM-1” (PHARMAZELL GMBH, priority 2009, published 2012).

The structures appear in SMILES notation.

The conditions of data set [1]: Form 2 compared with Form 1 of Clopidogrel bisulfate.
For data set [2] the following is noted: Form 2 compared with Form 1 of Clopidogrel bisulfate. The source holds these as a separate data set.

As to `COC(=O)[C@H](c1ccccc1Cl)N1CCc2sccc2C1` [Form 2, Clopidogrel bisulfate], in data set [1], the solubility entry is “lower solubility than Form 1”. Moreover, the thermodynamic stability entry in data set [2] was “greater thermodynamic stability”.
